This note sets out measurements from PMC11047187 (Synthetic and Systems Biotechnology, 2024).

The target of experiment [1] is T1, EcFADS (FAD synthase, RibF; RFK activity) (Escherichia coli, UniProt P0AG40).
T1 construct: full-length bifunctional RibF in pETDuet-1 (BamHI/NotI), His-tagged, Ni-NTA purified, expressed in E. coli BL21(DE3); natural BL21 variant H115L (not engineered); about 35 kDa; mainly monomer; tag removal not mentioned
The experiment in a line: RFK assay, FMN by HPLC fluorescence, Michaelis-Menten fit. In kind it is biochemical. The following applies: riboflavin kinase activity; 0.01-0.8 mM ATP, saturated RF; 15 mM MgCl2, 10 mM Na2SO3, potassium phosphate pH 7.5, 37 °C; read-out: KATP m. The text has this:
(§1) RFK assay, FMN by HPLC fluorescence, Michaelis-Menten fit on EcFADS (FAD synthase, RibF; RFK activity)

The target in experiment [2] is T2, EcFADS (FAD synthase, RibF; RFK activity) (Escherichia coli, UniProt P0AG40, H187L/N282D, form not given).
T2 construct: full-length bifunctional RibF in pETDuet-1 (BamHI/NotI), His-tagged, Ni-NTA purified, expressed in E. coli BL21(DE3); natural BL21 variant H115L (not engineered); about 35 kDa; mainly monomer; tag removal not mentioned
T2 sequence (P0AG40 whole entry H187L/N282D, form open): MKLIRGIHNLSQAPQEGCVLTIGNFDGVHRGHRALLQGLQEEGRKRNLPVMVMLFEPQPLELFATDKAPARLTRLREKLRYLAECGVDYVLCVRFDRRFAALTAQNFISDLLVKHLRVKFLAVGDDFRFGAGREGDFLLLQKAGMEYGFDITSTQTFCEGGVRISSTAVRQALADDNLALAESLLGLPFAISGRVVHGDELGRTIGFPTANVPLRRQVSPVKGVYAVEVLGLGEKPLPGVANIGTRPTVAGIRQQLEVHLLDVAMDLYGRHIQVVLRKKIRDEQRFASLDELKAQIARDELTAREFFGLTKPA
The experiment is described as above. It is filed as biochemical. As to conditions: riboflavin kinase activity; 0.01-0.8 mM ATP, saturated RF; 15 mM MgCl2, 10 mM Na2SO3, potassium phosphate pH 7.5, 37 °C; read-out: KATP m.
From the text: as §1

Consider `Nc1ncnc2c1ncn2[C@@H]1O[C@H](COP(=O)(O)OP(=O)(O)OP(=O)(O)O)[C@@H](O)[C@H]1O` [ATP], for which the results for the Km in experiment [1] and in experiment [2] were 10.2 ± 2.55 µM and 91.1 ± 36.7 µM, respectively.
